For 9 compounds, % of control, % of inhibition and % binding results are on record in ChEMBL document CHEMBL5465560, “Selectivity Literature for EUbOPEN Chemogenomic Library” (2024).

Each structure is given as a SMILES string.

Experiment [1] deals with Protein kinase C beta type (Homo sapiens, UniProt P05771). As to the kind of experiment: Selectivity interaction (Kinase panel (Z-LYTE Assay)) EUB0001632a PRKCB. The conditions noted are these: at 10 µM.
Experiment [2] has as its target Myosin light chain kinase 2, skeletal/cardiac muscle (Homo sapiens) (UniProt Q9H1R3). The conditions noted are these: at 10 µM.
Experiment [3] concerns the target Serine/threonine-protein kinase MARK1 (Homo sapiens) (UniProt Q9P0L2). The conditions noted are these: at 10 µM.
Experiment [4] addresses Serine/threonine-protein kinase PAK 4 (Homo sapiens, UniProt O96013). As to the kind of experiment: Selectivity interaction (KinomeScan (DiscoverX)) EUB0000695a PAK4. The conditions noted are these: at 100 nM.
Experiment [5] concerns the target Interferon-induced, double-stranded RNA-activated protein kinase (Homo sapiens) (UniProt P19525). As to the kind of experiment: Selectivity interaction (KinomeScan (DiscoverX)) EUB0000666a EIF2AK2. The conditions noted are these: at 10 µM.
For the next experiment, the target named is Aurora kinase B (Homo sapiens, UniProt Q96GD4). As to the kind of experiment: Selectivity interaction (ActivX KiNativ screen (kinase selectivity in THP-1 cell lysates)) EUB0000639a AURKB. It counts as subcellular. The conditions noted are these: lysate, at 5 µM.
The target of experiment [6] is Receptor tyrosine-protein kinase erbB-4 (Homo sapiens, UniProt Q15303). As to the kind of experiment: Selectivity interaction (Upstate Kinase Profiler service (Millipore)) EUB0000056c ERBB4. The conditions noted are these: at 1 µM.
For experiment [7], the target named is T1, Serine/threonine-protein kinase D2 (Homo sapiens) (UniProt Q9BZL6).
T1 sequence (whole entry): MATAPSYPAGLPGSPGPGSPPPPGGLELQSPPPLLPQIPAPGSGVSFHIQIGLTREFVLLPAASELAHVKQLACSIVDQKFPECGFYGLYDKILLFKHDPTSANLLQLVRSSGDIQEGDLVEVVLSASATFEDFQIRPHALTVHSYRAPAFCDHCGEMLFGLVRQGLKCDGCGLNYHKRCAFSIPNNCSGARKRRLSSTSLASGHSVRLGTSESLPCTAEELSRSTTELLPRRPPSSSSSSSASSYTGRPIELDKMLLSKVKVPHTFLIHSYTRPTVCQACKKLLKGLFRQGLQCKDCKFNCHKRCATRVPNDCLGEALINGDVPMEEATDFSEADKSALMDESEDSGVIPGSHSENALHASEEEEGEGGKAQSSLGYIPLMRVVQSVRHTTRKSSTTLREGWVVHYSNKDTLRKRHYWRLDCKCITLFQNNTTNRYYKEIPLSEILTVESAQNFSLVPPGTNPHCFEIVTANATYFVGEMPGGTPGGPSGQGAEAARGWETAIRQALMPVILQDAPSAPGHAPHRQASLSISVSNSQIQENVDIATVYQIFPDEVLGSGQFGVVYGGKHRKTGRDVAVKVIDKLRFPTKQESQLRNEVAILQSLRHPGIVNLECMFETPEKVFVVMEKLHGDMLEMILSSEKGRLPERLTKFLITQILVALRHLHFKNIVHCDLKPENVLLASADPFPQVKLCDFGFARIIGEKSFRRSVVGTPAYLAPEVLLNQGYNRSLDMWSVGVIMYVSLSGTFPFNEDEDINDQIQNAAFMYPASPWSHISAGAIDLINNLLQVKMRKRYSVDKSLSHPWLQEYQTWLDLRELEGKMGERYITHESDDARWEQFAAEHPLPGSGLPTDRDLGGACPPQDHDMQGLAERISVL
The experiment is described as follows: Selectivity interaction (KinomeScan (DiscoverX)) EUB0000618a PRKD2. The conditions noted are these: at 10 µM.

Experiment [8] deals with Cyclin-dependent kinase 8 (Homo sapiens, UniProt P49336). As to the kind of experiment: Selectivity interaction (KinomeScan (DiscoverX)) EUB0001079a CDK8. The conditions noted are these: at 1 µM.
The target in experiment [9] is T2, Ephrin type-A receptor 8 (Homo sapiens) (UniProt P29322).
T2 sequence (whole entry): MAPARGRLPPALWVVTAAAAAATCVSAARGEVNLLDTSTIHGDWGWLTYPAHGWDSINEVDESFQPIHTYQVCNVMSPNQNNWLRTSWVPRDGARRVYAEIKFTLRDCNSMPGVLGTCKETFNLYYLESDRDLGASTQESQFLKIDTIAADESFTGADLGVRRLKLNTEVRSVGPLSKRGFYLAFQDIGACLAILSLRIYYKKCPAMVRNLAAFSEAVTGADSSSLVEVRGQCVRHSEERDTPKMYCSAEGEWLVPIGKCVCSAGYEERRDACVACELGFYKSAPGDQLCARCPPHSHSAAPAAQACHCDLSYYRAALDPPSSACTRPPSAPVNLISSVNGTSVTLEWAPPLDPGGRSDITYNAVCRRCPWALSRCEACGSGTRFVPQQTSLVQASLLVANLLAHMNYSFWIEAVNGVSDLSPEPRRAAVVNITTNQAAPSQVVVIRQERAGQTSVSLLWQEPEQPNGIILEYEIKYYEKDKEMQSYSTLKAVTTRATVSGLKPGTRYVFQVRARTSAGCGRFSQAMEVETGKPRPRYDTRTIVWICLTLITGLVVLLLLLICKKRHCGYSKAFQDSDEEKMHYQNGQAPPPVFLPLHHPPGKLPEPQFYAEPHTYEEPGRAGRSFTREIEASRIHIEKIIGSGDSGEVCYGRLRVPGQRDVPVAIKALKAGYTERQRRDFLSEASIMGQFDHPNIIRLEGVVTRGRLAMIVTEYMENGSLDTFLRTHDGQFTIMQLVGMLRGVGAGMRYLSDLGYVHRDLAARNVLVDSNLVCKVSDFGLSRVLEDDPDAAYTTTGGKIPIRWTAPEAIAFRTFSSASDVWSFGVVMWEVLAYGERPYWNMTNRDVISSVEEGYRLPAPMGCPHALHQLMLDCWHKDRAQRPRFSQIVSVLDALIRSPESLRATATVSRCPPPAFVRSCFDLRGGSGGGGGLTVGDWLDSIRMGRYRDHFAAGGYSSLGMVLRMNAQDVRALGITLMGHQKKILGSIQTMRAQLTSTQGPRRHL
The experiment is described as follows: Selectivity interaction (KinomeScan (DiscoverX)) EUB0000229b EPHA8. The conditions noted are these: at 10 µM.

Cyclin-dependent kinase 8, sequence (P49336 whole entry): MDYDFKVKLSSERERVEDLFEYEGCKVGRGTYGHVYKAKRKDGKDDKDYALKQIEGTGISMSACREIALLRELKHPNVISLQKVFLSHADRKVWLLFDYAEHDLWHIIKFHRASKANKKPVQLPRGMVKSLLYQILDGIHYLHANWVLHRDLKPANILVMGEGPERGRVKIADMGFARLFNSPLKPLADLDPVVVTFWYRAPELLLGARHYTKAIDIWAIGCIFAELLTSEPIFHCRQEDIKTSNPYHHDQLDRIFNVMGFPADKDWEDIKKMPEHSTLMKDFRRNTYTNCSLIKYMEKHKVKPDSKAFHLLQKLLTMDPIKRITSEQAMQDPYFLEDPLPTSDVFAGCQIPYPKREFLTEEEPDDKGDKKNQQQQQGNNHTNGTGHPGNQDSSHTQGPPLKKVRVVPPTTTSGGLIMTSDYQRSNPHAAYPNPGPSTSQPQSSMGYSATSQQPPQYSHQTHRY
Protein kinase C beta type, sequence (P05771 2-671 limits assumed): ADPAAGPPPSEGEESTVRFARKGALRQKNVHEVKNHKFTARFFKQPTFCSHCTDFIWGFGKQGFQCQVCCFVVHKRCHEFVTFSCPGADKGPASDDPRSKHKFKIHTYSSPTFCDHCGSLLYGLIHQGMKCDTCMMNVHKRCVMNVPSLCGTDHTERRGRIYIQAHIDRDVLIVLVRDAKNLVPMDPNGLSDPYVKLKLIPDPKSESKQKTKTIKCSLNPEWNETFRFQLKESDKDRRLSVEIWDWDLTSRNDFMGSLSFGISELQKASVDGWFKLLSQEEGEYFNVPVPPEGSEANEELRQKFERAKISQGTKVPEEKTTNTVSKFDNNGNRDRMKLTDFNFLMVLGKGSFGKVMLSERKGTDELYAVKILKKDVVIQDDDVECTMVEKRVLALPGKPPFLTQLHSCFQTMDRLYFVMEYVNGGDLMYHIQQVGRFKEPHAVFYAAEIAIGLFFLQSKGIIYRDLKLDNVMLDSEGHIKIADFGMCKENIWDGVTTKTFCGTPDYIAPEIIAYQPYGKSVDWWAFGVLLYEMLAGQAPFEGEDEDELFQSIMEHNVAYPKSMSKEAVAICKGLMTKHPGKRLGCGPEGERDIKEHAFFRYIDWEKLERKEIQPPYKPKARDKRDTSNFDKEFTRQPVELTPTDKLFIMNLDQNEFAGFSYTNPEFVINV
Serine/threonine-protein kinase MARK1 (Homo sapiens), sequence (Q9P0L2 whole entry, looked up): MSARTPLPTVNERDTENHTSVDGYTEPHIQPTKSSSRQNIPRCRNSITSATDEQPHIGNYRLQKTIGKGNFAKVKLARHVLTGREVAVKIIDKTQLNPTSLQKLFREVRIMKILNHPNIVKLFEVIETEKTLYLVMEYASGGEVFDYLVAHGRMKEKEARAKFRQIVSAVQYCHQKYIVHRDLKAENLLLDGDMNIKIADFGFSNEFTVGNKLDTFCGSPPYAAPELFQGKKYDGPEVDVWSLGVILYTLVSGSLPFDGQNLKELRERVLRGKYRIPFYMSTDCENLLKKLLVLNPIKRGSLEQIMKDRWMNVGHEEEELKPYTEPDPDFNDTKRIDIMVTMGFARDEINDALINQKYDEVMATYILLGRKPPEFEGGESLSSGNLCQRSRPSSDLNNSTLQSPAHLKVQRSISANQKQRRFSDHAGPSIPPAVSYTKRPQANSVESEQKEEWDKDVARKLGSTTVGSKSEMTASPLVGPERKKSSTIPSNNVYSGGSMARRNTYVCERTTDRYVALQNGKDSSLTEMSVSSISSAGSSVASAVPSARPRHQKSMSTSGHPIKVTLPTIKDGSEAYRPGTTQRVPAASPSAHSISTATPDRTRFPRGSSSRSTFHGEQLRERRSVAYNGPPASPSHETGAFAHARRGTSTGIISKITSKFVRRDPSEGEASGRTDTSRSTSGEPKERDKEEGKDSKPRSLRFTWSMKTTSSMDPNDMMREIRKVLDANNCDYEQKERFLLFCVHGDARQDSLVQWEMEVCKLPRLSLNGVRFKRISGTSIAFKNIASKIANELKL
Interferon-induced, double-stranded RNA-activated protein kinase (Homo sapiens), sequence (P19525 whole entry): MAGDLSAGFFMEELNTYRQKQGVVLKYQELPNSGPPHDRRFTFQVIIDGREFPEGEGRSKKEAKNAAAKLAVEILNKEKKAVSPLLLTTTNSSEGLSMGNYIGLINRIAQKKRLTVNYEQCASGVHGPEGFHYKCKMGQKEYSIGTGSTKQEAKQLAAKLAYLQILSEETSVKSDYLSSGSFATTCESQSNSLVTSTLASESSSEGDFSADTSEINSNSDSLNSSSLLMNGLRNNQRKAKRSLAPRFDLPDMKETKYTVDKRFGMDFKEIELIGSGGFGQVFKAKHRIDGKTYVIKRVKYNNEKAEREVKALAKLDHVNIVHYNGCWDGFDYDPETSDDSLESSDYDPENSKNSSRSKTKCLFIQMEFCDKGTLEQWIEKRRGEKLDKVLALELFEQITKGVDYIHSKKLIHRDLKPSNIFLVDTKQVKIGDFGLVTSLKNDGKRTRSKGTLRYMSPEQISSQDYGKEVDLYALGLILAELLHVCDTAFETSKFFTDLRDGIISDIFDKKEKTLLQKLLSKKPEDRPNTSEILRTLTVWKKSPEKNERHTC
Serine/threonine-protein kinase PAK 4, sequence (O96013 whole entry, looked up): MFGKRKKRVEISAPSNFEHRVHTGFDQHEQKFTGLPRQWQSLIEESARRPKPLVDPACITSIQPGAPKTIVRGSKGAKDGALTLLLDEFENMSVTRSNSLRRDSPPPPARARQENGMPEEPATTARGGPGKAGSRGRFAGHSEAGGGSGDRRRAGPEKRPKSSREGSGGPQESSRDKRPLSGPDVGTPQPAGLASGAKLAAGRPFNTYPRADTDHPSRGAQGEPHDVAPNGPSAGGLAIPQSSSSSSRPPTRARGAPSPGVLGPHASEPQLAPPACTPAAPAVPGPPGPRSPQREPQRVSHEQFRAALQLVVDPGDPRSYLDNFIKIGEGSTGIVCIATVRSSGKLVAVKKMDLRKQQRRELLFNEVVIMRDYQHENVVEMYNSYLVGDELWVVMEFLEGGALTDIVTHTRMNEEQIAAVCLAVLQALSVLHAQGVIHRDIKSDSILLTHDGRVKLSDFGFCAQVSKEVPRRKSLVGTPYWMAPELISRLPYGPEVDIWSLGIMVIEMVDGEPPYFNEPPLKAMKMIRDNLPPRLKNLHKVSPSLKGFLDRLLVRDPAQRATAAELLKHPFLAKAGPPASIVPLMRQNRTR
Aurora kinase B, sequence (Q96GD4 whole entry): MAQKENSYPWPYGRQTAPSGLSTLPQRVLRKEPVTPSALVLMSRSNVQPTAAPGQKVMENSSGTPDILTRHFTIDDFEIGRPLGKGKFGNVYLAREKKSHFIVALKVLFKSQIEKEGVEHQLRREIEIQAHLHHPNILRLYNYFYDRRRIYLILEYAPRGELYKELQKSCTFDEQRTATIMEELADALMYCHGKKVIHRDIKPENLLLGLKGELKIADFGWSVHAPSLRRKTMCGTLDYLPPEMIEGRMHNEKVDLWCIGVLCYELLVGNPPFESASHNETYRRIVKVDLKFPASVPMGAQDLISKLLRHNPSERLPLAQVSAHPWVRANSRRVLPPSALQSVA
Myosin light chain kinase 2, skeletal/cardiac muscle (Homo sapiens), sequence (Q9H1R3 whole entry): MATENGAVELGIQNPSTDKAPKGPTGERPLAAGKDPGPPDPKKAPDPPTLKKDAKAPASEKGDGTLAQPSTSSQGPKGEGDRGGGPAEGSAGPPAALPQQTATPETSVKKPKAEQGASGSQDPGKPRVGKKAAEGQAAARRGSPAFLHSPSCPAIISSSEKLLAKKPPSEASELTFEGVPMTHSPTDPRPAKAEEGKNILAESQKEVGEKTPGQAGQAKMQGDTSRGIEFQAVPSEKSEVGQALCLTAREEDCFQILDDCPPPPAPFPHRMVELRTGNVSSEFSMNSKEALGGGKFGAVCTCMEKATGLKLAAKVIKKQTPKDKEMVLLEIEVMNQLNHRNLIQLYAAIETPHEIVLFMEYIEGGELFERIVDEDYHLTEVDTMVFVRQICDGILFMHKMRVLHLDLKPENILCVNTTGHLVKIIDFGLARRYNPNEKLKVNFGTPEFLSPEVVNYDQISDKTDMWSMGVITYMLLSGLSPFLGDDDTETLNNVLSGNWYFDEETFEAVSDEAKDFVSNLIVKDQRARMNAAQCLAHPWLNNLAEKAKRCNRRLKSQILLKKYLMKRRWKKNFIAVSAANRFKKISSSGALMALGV

As to `Cn1cc(-n2cnc3c(NCc4nc5cc(Cl)c(Cl)cc5[nH]4)nc(N4CCOCC4)nc32)cn1`, the % of control in experiment [1] came out at 45.9%. Regarding `CCN(CC)CCCCNc1ncc2cc(-c3cc(OC)cc(OC)c3)c(NC(=O)NC(C)(C)C)nc2n1`, the % of control in [2] and in experiment [3] was 100% throughout. In the case of `Cc1cc(F)c(C(=O)Nc2cccc(-c3nncn3C(C)C)n2)cc1-n1cnc(C2CC2)c1`, the % of control in experiment [4] was found to be 99%.

In experiment [5], `O=C(NOC[C@H](O)CO)c1ccc(F)c(F)c1Nc1ccc(I)cc1F` gave a % of control of 100%. `CC[C@@H]1[C@H](F)C(=O)N[C@@H]1COc1nccc2cc(C(N)=O)c(OC)cc12` [ZIMLOVISERTIB]: the % of inhibition on Aurora kinase B stood at 64.4%.

In the case of `Cc1ccc(-c2ccc3c(ccc4sc5c(c43)NC[C@@H](C)NC5=O)n2)cn1`, the % of inhibition in experiment [6] stood at 12%. As for `O[C@H]1CC[C@H](Nc2ncc3nc(Nc4c(F)cc(F)cc4F)n([C@H]4CCOC4)c3n2)CC1`, the % of control in experiment [7] is 77%. Consider `Nc1cnc(N2CCc3cc(S(=O)(=O)Nc4c(F)cc(Cl)cc4F)cc(N4CCCC4=O)c32)nc1` [TP-020n], for which, in experiment [8], the % of control was found to be 100%. In the case of `COc1cc(N(C)c2ccnc3ccc(C(F)(F)F)cc23)cc(OC)c1OC`, the % binding in [9] was 94%.
